Usually IC50 stands for the concentration at which inhibition is half-maximal. A high value points to a need for much substance.

The values that follow come from ChEMBL document CHEMBL3112442, “Anilino-monoindolylmaleimides as potent and selective JAK3 inhibitors” (Bioorg Med Chem Lett, 2014).

Assay [1] deals with Non-receptor tyrosine-protein kinase TYK2 (Homo sapiens, UniProt P29597).
Assay [2] has as its target Tyrosine-protein kinase JAK1 (Homo sapiens, UniProt P23458).
Assay [3] concerns the target T1, Tyrosine-protein kinase JAK3 (Homo sapiens, UniProt P52333).
T1 sequence (P52333 whole entry): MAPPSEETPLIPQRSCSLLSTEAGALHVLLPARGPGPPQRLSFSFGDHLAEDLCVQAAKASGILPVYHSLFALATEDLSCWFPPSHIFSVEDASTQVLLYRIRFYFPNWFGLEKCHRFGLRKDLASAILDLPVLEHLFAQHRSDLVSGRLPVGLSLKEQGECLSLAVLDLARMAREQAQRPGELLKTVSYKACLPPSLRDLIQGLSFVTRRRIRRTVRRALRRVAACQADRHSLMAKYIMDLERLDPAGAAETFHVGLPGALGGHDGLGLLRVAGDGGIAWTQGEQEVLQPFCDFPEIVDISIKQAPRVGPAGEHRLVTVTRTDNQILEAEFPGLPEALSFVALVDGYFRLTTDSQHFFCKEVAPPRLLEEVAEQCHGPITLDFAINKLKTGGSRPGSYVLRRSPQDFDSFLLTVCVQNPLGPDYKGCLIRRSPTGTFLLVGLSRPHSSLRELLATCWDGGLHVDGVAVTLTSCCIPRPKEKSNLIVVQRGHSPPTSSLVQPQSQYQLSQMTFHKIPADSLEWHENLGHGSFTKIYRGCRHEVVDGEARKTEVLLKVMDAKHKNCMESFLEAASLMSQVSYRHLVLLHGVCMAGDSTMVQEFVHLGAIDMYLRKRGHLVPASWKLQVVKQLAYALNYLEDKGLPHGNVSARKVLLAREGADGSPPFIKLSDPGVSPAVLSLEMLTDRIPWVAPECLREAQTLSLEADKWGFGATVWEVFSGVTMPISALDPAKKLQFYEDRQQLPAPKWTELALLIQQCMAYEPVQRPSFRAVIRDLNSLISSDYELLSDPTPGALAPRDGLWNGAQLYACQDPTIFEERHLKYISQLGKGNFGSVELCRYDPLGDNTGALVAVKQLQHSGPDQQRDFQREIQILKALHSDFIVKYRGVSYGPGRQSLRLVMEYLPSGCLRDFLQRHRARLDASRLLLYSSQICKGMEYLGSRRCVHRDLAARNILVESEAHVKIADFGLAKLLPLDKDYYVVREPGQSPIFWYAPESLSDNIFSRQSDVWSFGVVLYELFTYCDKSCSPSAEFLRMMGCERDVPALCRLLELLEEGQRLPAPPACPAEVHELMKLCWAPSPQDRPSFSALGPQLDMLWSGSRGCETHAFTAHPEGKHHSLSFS

Tyrosine-protein kinase JAK1, sequence (P23458 whole entry): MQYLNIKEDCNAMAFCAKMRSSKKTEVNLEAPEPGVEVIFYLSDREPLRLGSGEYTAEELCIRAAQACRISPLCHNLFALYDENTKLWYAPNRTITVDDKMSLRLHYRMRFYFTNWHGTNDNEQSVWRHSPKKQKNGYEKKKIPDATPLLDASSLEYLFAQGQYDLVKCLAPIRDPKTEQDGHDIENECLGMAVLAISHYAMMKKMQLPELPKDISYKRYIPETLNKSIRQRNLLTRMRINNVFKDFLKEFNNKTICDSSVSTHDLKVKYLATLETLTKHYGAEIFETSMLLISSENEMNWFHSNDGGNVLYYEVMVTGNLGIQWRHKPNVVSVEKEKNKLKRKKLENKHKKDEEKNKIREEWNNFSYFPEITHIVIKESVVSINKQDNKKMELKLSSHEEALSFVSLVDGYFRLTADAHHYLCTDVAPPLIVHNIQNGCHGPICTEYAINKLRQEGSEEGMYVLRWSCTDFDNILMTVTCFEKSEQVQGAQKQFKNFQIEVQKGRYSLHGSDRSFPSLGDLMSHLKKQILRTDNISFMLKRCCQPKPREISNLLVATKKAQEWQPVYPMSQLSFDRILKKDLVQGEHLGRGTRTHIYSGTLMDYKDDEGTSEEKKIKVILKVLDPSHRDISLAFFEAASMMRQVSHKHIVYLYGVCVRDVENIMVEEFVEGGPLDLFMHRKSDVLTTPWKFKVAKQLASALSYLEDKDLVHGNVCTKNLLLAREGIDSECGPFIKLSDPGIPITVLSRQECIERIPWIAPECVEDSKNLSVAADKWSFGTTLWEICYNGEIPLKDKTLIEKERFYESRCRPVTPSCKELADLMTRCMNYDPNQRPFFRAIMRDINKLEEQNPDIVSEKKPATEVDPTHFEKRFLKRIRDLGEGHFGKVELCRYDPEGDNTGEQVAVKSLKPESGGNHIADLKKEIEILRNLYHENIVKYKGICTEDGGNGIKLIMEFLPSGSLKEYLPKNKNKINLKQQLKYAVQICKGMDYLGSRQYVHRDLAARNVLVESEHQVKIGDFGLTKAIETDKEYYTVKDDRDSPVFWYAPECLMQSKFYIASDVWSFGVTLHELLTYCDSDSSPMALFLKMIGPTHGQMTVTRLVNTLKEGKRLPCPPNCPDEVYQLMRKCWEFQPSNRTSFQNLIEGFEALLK
Non-receptor tyrosine-protein kinase TYK2, sequence (P29597 whole entry): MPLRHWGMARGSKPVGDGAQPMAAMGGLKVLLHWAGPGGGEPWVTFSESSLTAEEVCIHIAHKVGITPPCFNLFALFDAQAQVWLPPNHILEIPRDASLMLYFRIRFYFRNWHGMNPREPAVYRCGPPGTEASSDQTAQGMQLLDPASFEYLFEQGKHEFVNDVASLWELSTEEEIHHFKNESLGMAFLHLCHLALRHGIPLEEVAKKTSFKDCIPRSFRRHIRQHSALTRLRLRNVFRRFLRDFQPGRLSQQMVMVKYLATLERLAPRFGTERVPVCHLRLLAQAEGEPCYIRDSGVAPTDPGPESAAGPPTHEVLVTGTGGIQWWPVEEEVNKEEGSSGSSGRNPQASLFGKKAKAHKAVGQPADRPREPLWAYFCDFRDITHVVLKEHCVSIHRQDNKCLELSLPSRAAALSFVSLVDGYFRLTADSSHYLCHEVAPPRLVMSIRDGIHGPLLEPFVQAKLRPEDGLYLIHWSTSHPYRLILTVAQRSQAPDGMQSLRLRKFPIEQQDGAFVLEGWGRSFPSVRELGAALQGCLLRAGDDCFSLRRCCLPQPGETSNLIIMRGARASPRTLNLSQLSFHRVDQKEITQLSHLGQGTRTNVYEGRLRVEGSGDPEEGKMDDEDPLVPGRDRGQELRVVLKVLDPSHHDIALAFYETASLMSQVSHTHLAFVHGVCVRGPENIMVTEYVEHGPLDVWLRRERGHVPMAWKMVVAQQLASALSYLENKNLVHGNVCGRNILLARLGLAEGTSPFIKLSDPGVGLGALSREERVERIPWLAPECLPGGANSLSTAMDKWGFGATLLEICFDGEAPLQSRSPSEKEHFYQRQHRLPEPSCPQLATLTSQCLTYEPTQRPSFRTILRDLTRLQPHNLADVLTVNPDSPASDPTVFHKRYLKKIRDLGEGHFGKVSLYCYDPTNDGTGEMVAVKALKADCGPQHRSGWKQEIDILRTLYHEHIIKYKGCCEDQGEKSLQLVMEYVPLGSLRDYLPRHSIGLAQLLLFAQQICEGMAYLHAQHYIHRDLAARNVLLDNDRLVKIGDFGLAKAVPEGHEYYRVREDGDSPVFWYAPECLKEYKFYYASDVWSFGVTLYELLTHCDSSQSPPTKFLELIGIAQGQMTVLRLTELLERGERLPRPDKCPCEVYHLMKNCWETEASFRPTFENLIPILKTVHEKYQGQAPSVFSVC

For `CC(C)(O)C(=O)N1CCN(c2ccc(C(F)(F)F)c(C3=C(c4c[nH]c5ccccc45)C(=O)NC3=O)c2)CC1`, the IC50 turned out to be 1.69 µM in assay [1] and 0.311 µM in assay [2].
With `O=C1NC(=O)C(c2c[nH]c3ccccc23)=C1Nc1cccc(OC2CCN(c3ccnc(F)c3)C2)c1` (racemic), the IC50 in assay [1] was 11.9 µM; in assay [3], 0.012 µM; in assay [2] it was 0.564 µM.
In the case of `O=C1NC(=O)C(c2c[nH]c3ccccc23)=C1Nc1cccc(OCCNc2ccnc(F)c2)c1`, the IC50 in assay [1] was > 10 µM; in assay [3], 0.029 µM; in assay [2], 0.423 µM.
The corresponding values for `O=C1NC(=O)C(c2c[nH]c3ccccc23)=C1Nc1cccc(OCCn2ccnc2)c1` are > 10 µM, 1.79 µM and > 10 µM.
As for `Cn1cc(C2=C(Nc3cccc(OCCNc4ccnc(F)c4)c3)C(=O)NC2=O)c2ccccc21`, the IC50 stood at 5.1 µM in assay [1], 0.179 µM in assay [3] and 1.78 µM in assay [2].
`O=C1NC(=O)C(c2c[nH]c3ccccc23)=C1Nc1ccc(OCCn2ccnc2)cc1`: the IC50 in assay [1] was 7.37 µM; in assay [3], 0.278 µM; in assay [2] it was > 10 µM.
Take `O=C1NC(=O)C(c2c[nH]c3ccccc23)=C1Nc1ccccc1OCCn1ccnc1`: the IC50 in assay [1] was > 10 µM; in assay [3], 9.37 µM; in assay [2], > 10 µM.
In the case of `O=C1NC(=O)C(c2c[nH]c3ccccc23)=C1Nc1cccc(C2CCN(c3ccnc(F)c3)C2)c1` (racemic), the IC50 in assay [1], in assay [3] and in assay [2] was > 10 µM each time.
As for `O=C1NC(=O)C(c2c[nH]c3ccccc23)=C1Nc1ccc(OCCCNc2ccnc(F)c2)cc1`, the IC50 in assay [1] is > 10 µM; in assay [3], 0.135 µM; in assay [2] it was 1.06 µM.
Take `O=C1NC(=O)C(c2c[nH]c3ccccc23)=C1Nc1cccc(OCCNc2cnccn2)c1`: in assay [3], the IC50 came out at 0.408 µM.
`O=C1NC(=O)C(c2c[nH]c3ccccc23)=C1Nc1cccc(C2CN(c3ccnc(F)c3)C2)c1`: the IC50 is > 10 µM in assay [1], 0.576 µM in assay [3] and 11.1 µM in assay [2].
As to `O=C1NC(=O)C(c2c[nH]c3ccccc23)=C1Nc1ccc(OCCCn2ccnc2)cc1`, the IC50 was > 10 µM in assay [1], 1.15 µM in assay [3] and 8.64 µM in assay [2].
The corresponding values for `O=C1NC(=O)C(c2c[nH]c3ccccc23)=C1Nc1ccc(OCCNc2ccnc(F)c2)cc1` are 9.84 µM, 0.201 µM and 2.06 µM.
The corresponding values for `O=C1NC(=O)C(c2c[nH]c3ccccc23)=C1Nc1cccc(OCCCn2ccnc2)c1` are > 10 µM, 0.128 µM and 0.3 µM.
For `O=C1C=C(Nc2cccc(OCCNc3ccnc(F)c3)c2)C(=O)N1`, the IC50 in assay [1], in assay [3] and in assay [2] was > 10 µM throughout.
In assay [3], `O=C1NC(=O)C(c2c[nH]c3ccccc23)=C1Nc1cccc(OCCNc2ccccc2)c1` gave a half-maximal inhibitory concentration (IC50) of 1.38 µM.
For `O=C1NC(=O)C(c2c[nH]c3ccccc23)=C1Nc1cccc(OCCNc2cc(F)cc(F)c2)c1`, the midpoint of inhibition in assay [3], the IC50, lay at 1.39 µM.
In turn, `O=C1NC(=O)C(c2c[nH]c3ccccc23)=C1Nc1cccc(OCCNc2ccccn2)c1` returned an IC50 in assay [3] of 1.5 µM.
Turning to `O=C1NC(=O)C(c2c[nH]c3ccccc23)=C1Nc1ccccc1OCCNc1ccnc(F)c1`, the IC50 in assay [1], in assay [3] and in assay [2] was > 10 µM each time.
Take `O=C1NC(=O)C(c2c[nH]c3ccccc23)=C1Nc1cccc(OC2CCCN(c3ccnc(F)c3)C2)c1` (racemic): the IC50 in assay [1] is > 10 µM; in assay [3] it was 0.163 µM; in assay [2], > 10 µM.
For `O=C1NC(=O)C(c2c[nH]c3ccccc23)=C1Nc1cccc(O[C@@H]2CCN(c3ccnc(F)c3)C2)c1`, the IC50 in assay [1] was > 10 µM; in assay [3] it was 0.497 µM; in assay [2] it was 4.9 µM.
In the case of `O=C1NC(=O)C(c2cn(CCCn3ccnc3)c3ccccc23)=C1Nc1ccccc1`, the values for the IC50 in assay [1], in assay [3] and in assay [2] were 2.31 µM, 0.017 µM and 0.77 µM, respectively.
As to `O=C1NC(=O)C(c2c[nH]c3ccccc23)=C1Nc1cccc(OC2CCN(c3ccnc(F)c3)CC2)c1`, the IC50 in assay [1] was > 10 µM; in assay [3] it was 0.625 µM; in assay [2], 4.82 µM.
On to `CN(CCOc1cccc(NC2=C(c3c[nH]c4ccccc34)C(=O)NC2=O)c1)c1ccnc(F)c1`, for which the results for the IC50 in assay [1], in assay [3] and in assay [2] were 0.995 µM, 0.046 µM and > 10 µM, respectively.
`O=C1NC(=O)C(c2c[nH]c3ccccc23)=C1Nc1cccc(C2CCN(c3ccnc(F)c3)CC2)c1`: the IC50 in assay [1], in assay [3] and in assay [2] was > 10 µM in each case.
With `O=C1NC(=O)C(c2c[nH]c3ccccc23)=C1Nc1cccc(O[C@H]2CCN(c3ccnc(F)c3)C2)c1`, the IC50 in assay [3] came out at 0.013 µM; in assay [2] it was 0.628 µM.
`O=C1NC(=O)C(c2ccccc2)=C1Nc1cccc(OCCNc2ccnc(F)c2)c1`: the IC50 in assay [1] is > 10 µM; in assay [3] it was 0.576 µM; in assay [2], 2.17 µM.
With `O=C1NC(=O)C(c2c[nH]c3ccccc23)=C1Nc1cccc(OC2CN(c3ccnc(F)c3)C2)c1`, the figures for the IC50 in assay [1], in assay [3] and in assay [2] were > 10 µM, 0.2 µM and 4.1 µM, respectively.
